Data published in the supplement of paper PMC10307832.

Experiments:
Assay in all cases: relative viability (nuclei count vs DMSO), 5 days (fraction); higher = more cells survive
[1] = compound: C1=CC=C2C(=C1)N=C(S2)C(C#N)C3=NC(=NC=C3)NCCC4=CN=CC=C4 + N=C(N)NC(=N)NCCc1ccccc1 [Phenformin] (partner 250 µM)
Method in brief: (§1)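 Relative viability is defined as nuclei in treated wells over nuclei in vehicle wells. Duplicate plates were run and medians reported. Lung cancer cell lines in 1536-well plates were dosed by pin tool one day after seeding, with one drug or with a fixed anchor-drug dose plus five library-drug doses (not always all listed) in √10 steps, and nuclei were counted after 5 days.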

NVP-TAE684 + Foretinib = compound: COc1cc(N2CCC(N3CCN(C)CC3)CC2)ccc1Nc1ncc(Cl)c(Nc2ccccc2S(=O)(=O)C(C)C)n1 [NVP-TAE684] + COc1cc2c(Oc3ccc(NC(=O)C4(C(=O)Nc5ccc(F)cc5)CC4)cc3F)ccnc2cc1OCCCN1CCOCC1 [Foretinib] (partner 0.25 µM)
Method in brief: as §1

NVP-TAE684 + Dasatinib = compound: COc1cc(N2CCC(N3CCN(C)CC3)CC2)ccc1Nc1ncc(Cl)c(Nc2ccccc2S(=O)(=O)C(C)C)n1 [NVP-TAE684] + Cc1nc(Nc2ncc(C(=O)Nc3c(C)cccc3Cl)s2)cc(N2CCN(CCO)CC2)n1 [Dasatinib] (partner 0.075 µM)
Method in brief: as §1

NVP-TAE684 + Decitabine = compound: COc1cc(N2CCC(N3CCN(C)CC3)CC2)ccc1Nc1ncc(Cl)c(Nc2ccccc2S(=O)(=O)C(C)C)n1 [NVP-TAE684] + Nc1ncn([C@H]2C[C@H](O)[C@@H](CO)O2)c(=O)n1 [Decitabine] (partner 2 µM)
Method in brief: as §1

NVP-TAE684 + Olaparib = compound: COc1cc(N2CCC(N3CCN(C)CC3)CC2)ccc1Nc1ncc(Cl)c(Nc2ccccc2S(=O)(=O)C(C)C)n1 [NVP-TAE684] + O=C(c1cc(Cc2n[nH]c(=O)c3ccccc23)ccc1F)N1CCN(C(=O)C2CC2)CC1 [Olaparib] (partner 8 µM)
Method in brief: as §1

UMC-11
relative viability ([1]; first compound 0.005 µM): 0.3
relative viability ([1]; first compound 0.01581 µM): 0.315
relative viability ([1]; first compound 0.05 µM): 0.32
relative viability ([1]; first compound 0.1581 µM): 0.325
relative viability ([1]; first compound 0.5 µM): 0.336
relative viability (NVP-TAE684 + Foretinib; first compound 0.2 µM): 1.03
relative viability (NVP-TAE684 + Foretinib; first compound 0.6325 µM): 0.926
relative viability (NVP-TAE684 + Foretinib; first compound 2 µM): 0.334
relative viability (NVP-TAE684 + Dasatinib; first compound 0.2 µM): 0.577
relative viability (NVP-TAE684 + Dasatinib; first compound 0.6325 µM): 0.415
relative viability (NVP-TAE684 + Dasatinib; first compound 2 µM): 0.284
relative viability (NVP-TAE684 + Decitabine; first compound 0.2 µM): 0.582
relative viability (NVP-TAE684 + Decitabine; first compound 0.6325 µM): 0.581
relative viability (NVP-TAE684 + Decitabine; first compound 2 µM): 0.346
relative viability (NVP-TAE684 + Olaparib; first compound 0.2 µM): 0.376
relative viability (NVP-TAE684 + Olaparib; first compound 0.6325 µM): 0.336
relative viability (NVP-TAE684 + Olaparib; first compound 2 µM): 0.228
